Measurements taken from patent US11432549B2, “Carbamoyl triazolinone based herbicide combinations and method of use” (Arysta LifeScience Corporation, priority 2009, dated 2022).

System: Cyperus esculentus
Assay: Ex 2 pre-emergence, visual % damage
Type: in vivo
Settings: kg/ha: Amicarbazone 1.5, Clomazone/Hexazinone 2.0, mixture 1.5 + 2.0
Text: DINAMIC® (amicarbazone) and Discover (clomazone 400 g/kg+hexazinone 100 g/kg) alone or in combination were applied pre-emergence in this study. The formulations for DINAMIC® and Discover were 700 g active ingredient a.i./kg and 500 g active ingredient a.i/kg respectively.
The herbicidal effect was observed by comparing the extent of Cyperus esculentus treated with the compounds against that occurring in similar non-treated control. Herbicidal effect was visually assessed and recorded at 27, 43, 46, 60, 63, 77, 83, 97 and 124 days after treatment (DAT). Damage by the herbicidal compositions was evaluated with reference to a scale of 0% to 100% in comparison with untreated control. 0% means no damage and 100% means complete destruction of the plants.
The theoretical herbicidal effect index were calculated based on Colby and the values were indicated in bracket ( ) in Table 2-1. The herbicidal mixtures (amicarbazone+(clomazone/hexazinone)) exert a greater herbicidal action than expected according to Colby on the basis of the observed effects of the individual components when used alone. […] The underlined values in the table indicate that the observed weed killing is greater than calculated from the Colby formula and therefore indicates a synergistic weed killing effect or activity.

## CC(C)c1nn(C(=O)NC(C)(C)C)c(=O)n1N [Amicarbazone, 4-amino-5-isopropyl-2-(tert-butyl-aminocarbonyl)-2,4-dihydro-3H-1,2,4-triazol-3-one]
Trial 1, 43 DAT
  percentage control: 40%
Trial 1, 63 DAT
  percentage control: 62%
Trial 1, 77 DAT
  percentage control: 65%
Trial 2, 27 DAT
  percentage control: 37%
Trial 2, 46 DAT
  percentage control: 53%
Trial 2, 60 DAT
  percentage control: 57%
Trial 2, 83 DAT
  percentage control: 68%
Trial 2, 97 DAT
  percentage control: 53%
Trial 2, 124 DAT
  percentage control: 23%
